Counter-ions that a name gives are not always drawn. Like-named read-outs stand apart in the source and are kept apart here.
Legend:
[1] = molecular target: T1, E. feacalis DltA (Enterococcus faecalis, UniProt Q830N0); assay: biochemical
T1 sequence (Q830N0 1-506): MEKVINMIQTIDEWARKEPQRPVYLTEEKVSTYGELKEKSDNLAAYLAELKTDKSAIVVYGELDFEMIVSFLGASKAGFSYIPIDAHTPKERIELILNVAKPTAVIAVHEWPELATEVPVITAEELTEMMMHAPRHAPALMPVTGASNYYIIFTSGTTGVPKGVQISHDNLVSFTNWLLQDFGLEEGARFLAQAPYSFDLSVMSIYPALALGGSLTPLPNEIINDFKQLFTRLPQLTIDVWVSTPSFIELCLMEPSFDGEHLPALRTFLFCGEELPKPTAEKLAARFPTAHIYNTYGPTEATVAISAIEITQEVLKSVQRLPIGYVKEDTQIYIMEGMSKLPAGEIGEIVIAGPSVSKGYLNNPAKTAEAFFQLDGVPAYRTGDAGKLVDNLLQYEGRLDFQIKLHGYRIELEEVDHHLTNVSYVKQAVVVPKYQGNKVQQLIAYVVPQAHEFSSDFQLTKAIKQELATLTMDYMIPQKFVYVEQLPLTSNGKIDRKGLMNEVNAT
Experimental: (§1) To this end, recombinant proteins DltA were expressed and purified after cloning of the genes of S. aureus, E. faecalis, E. faecium and S. agalactiae as described thereafter. The capacity of the compounds of the invention to inhibit DltA enzymatic activity was assessed using the DltA assays as described below: • The dltA gene was amplified from chromosomal DNA of S. aureus, E. faecalis, E. faecium and S. agalactiae and introduced into E. coli BL21 (Invitrogen, Carlsbad, CA) following manufacturer's instruction. Bacteria were grown at 37°C under aerobic conditions and isopropyl-beta-D-thiogalactopyranoside (IPTG) was added to 0.5-1 mM when OD600 of the bacterial culture had reached 0.5. After a further incubation for 3 hours, cells were harvested by centrifugation. Purification of the recombinant DltA protein was performed by affinity chromatography on nickel-nitrilotriacetic acid (Ni-NTA) column following manufacturer's instructions (Qiagen). Fractions containing recombinant DltA protein were adjusted to 50% glycerol and stored at -20°C until use.
(§2) The binding potency of the inhibitors against DltA enzyme was assessed by IC50 determination in an in vitro DltA activity assay. The assay buffer "AB" contained 50 mM Hepes pH8.0, 10mM MgCl2, 50mM KCI, 0.012% Triton-X100, 10mM DTT and 100nM Myelin-basic protein. The following components were added in a white polystyrene Costar plate up to a final volume of 30µL: 3µL DMSO, or inhibitor dissolved in DMSO and 27µL DltA enzyme in AB. After 30min of preincubation at room temperature, 30µL of Substrates mix in AB were added in each well to a final volume of 60µL. This reaction mixture was then composed of DltA (produced in house from S. aureus, E. faecalis, E. faecium and S. agalactiae), 0.5mM D-Alanine (Sigma), 0.5-5µM ATP (Sigma) and 0.05 u/ml inorganic pyrophosphatase (Sigma) in assay buffer. After typically 1-2hours of incubation at room temperature (conversion rate around 30%), 30µL of the revelation mix were added to a final volume of 90µL, including the following constituents at the respective final concentrations: 10000 u/ml luciferase (Sigma), 30µM D-luciferin (Sigma), 100µM N-acetylcysteamine (Aldrich). Luminescence intensity was immediately measured on a Fluostar Optima (BMG) (excitation 360nm, emission 520nm) and converted into inhibition percentages.
(§3) For compounds interfering with the luminescent signal (quenching), the same experiment without DltA enzyme was performed to allow quenching determination and correction.

[2] = molecular target: T2, S. Agalactiae DltA (Streptococcus agalactiae serotype III, UniProt Q8VM67); assay: biochemical
T2 sequence (Q8VM67 1-511): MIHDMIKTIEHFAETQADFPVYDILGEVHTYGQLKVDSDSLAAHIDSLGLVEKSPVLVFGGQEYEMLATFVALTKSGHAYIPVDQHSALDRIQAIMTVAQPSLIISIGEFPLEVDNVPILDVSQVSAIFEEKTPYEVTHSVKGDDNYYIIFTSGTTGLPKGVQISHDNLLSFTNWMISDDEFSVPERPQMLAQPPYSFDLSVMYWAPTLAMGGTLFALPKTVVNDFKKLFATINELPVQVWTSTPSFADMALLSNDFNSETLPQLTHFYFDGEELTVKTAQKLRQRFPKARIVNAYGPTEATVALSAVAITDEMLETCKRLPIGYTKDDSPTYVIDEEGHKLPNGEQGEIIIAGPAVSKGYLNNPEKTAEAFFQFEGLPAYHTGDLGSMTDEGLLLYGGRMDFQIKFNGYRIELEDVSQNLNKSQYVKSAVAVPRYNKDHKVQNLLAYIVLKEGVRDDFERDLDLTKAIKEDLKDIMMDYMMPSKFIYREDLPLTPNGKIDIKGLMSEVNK
Experimental: as §1, §2, §3

[3] = molecular target: T3, S. aureus DltA (Staphylococcus aureus, UniProt Q2FZW6); assay: in vitro DltA activity assay (luminescence, IC50 determination); assay type: biochemical
T3 construct: made in house; host or cells: E. coli BL21
T3 sequence (Q2FZW6 1-485): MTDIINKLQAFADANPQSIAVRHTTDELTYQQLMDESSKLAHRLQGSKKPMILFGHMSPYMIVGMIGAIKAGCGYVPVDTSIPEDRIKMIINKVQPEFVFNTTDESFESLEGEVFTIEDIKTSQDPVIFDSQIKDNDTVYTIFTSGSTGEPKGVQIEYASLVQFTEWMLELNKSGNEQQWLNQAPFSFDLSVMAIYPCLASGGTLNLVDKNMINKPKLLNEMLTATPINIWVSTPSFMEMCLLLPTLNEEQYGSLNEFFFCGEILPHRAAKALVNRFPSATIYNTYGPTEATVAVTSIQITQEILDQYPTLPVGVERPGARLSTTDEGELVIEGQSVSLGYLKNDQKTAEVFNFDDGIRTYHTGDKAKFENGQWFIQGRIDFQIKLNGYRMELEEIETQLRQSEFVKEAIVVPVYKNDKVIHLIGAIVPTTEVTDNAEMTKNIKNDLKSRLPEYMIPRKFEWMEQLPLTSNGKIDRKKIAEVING
Experimental: as §1, with “The effect of the compounds of the invention on DltA enzymes has been based on the measure of their inhibition of DltA activity in vitro. To” for “To”
as §2, §3

[4] = molecular target: T4, E. feacium DltA (Enterococcus faecium, UniProt Q3XZT7); assay: as above; assay type: biochemical
T4 sequence (Q3XZT7 1-504): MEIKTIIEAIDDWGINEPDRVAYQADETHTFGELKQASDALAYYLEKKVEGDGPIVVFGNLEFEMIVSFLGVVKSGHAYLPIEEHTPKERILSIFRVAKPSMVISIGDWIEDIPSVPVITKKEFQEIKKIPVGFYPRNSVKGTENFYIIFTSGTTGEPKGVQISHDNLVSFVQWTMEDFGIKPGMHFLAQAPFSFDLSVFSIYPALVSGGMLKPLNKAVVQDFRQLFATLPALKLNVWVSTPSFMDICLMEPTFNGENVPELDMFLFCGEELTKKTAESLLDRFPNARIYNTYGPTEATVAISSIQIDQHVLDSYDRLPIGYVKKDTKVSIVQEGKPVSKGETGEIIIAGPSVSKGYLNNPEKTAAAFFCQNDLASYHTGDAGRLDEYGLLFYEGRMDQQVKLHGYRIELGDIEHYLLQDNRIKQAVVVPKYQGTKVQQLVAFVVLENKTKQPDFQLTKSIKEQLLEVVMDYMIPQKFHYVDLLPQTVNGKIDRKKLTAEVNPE
Experimental: as §1, with “The effect of the compounds of the invention on DltA enzymes has been based on the measure of their inhibition of DltA activity in vitro. To” for “To”
as §2, §3

[5] = recombinant DltA, 30min preincubation at room temperature, 0.5mM D-Alanine, 0.5-5µM ATP, read-out: E. feacium DltA IC50

| Structure (SMILES) | IC50 [1] [nM] | IC50 [2] [nM] | IC50 [3] [nM] | IC50 [4, 5] [nM] | IC50 [4] [nM] |
| --- | --- | --- | --- | --- | --- |
| O=c1[nH]cnc2c(-c3ccc4c(c3)ncn4C3CCCCC3)sc(C3=CCNCC3)c12 [Example 37, 7-(1-cyclohexyl-1H-benzoimidazol-5-yl)-5-(1,2,3,6-tetrahydro-pyridin-4-yl)-3H-thieno[3,4-d]pyrimidin-4-one hydrochloride] | 25 | 660 | 68 | 42 |  |
| CN1CC=C(c2sc(-c3ccc4c(c3)ncn4C3CCCCC3)c3nc[nH]c(=O)c23)CC1 [Example 38, hydrochloride] | 42 | 910 | 130 |  | 130 |
| CCn1cnc2cc(-c3sc(N4CC[C@H](CO)C4)c4c(=O)[nH]cnc34)ccc21 [Example 45, 7-(1-ethyl-1H-benzoimidazol-5-yl)-5-((S)-3-hydroxymethyl-pyrrolidin-1-yl)-3H-thieno[3,4-d]pyrimidin-4-one] | 70 | 3400 | 130 | 390 |  |
| COCCn1cnc2cc(-c3sc(N4CC[C@H](CO)C4)c4c(=O)[nH]cnc34)ccc21 [Example 46, 5-((S)-3-hydroxymethyl-pyrrolidin-1-yl)-7-[1-(2-methoxy-ethyl)-1H-benzoimidazol-5-yl]-3H-thieno[3,4-d]pyrimidin-4-one] | 150 | 5100 | 150 | 440 |  |
| O=c1[nH]cnc2c(-c3ccc4c(c3)ncn4[C@@H]3CCCC[C@H]3F)sc(N3CC[C@H](CO)C3)c12 [Example 47, 7-[1-((1R,2R)-2-fluoro-cyclohexyl)-1H-benzoimidazol-5-yl]-5-((S)-3-hydroxymethyl-pyrrolidin-1-yl)-3H-thieno[3,4-d]pyrimidin-4-one] | 46 | 2600 | 77 | 110 |  |
| O=c1[nH]cnc2c(-c3ccc4c(c3)ncn4C3CCCOC3)sc(N3CC[C@H](CO)C3)c12 (stereo partly drawn) [Example 49, 5-((S)-3-hydroxymethyl-pyrrolidin-1-yl)-7-[1-(tetrahydro-pyran-3-yl)-1-H-benzoimidazol-5-yl]-3H-thieno[3,4-d]pyrimidin-4-one] | 82 | 3300 | 97 | 160 |  |
| O=c1[nH]cnc2c1c(CCCO)cn2-c1ccc2c(c1)ncn2C1CCCCC1 [Example 51, 7-(1-Cyclohexyl-1H-benzoimidazol-5-yl)-5-(3-hydroxy-propyl)-3,7-dihydro-pyrrolo[2,3-d]pyrimidin-4-one] | 330 | 4500 | 1100 | 1200 |  |
| O=c1[nH]cnc2c1c(C1=CCNCC1)cn2-c1ccc2c(c1)ncn2C1CCCCC1 [Example 52, 7-(1-cyclohexyl-1H-benzoimidazol-5-yl)-5-(1,2,3,6-tetrahydro-pyridin-4-yl)-3,7-dihydro-pyrrolo[2,3-d]pyrimidin-4-one hydrochloride] | 26 | 350 | 150 | 120 |  |
| CN1CC=C(c2cn(-c3ccc4c(c3)ncn4C3CCCCC3)c3nc[nH]c(=O)c23)CC1 [Example 53, 7-(1-cyclohexyl-1H-benzoimidazol-5-yl)-5-(1-methyl-1,2,3,6-tetrahydro-pyridin-4-yl)-3,7-dihydro-pyrrolo[2,3-d]pyrimidin-4-one] | 13 | 590 | 150 | 94 |  |
| O=c1[nH]cnc2c1c(C1CCC(CO)C1)cn2-c1ccc2c(c1)ncn2C1CCCCC1 (stereo not drawn) [Example 58, 7-(1-Cyclohexyl-1H-benzoimidazol-5-yl)-5-(3-hydroxymethyl-cyclopentyl)-3,7-dihydro-pyrrolo[2,3-d]pyrimidin-4-one] | 190 | 6100 | 810 | 480 |  |
| O=c1[nH]cnn2c(-c3ccc4c(c3)ncn4C3CCCCC3)cc(N3CC[C@H](CO)C3)c12 [Example 63, 7-(1-Cyclohexyl-1H-benzoimidazol-5-yl)-5-((S)-3-hydroxymethyl-pyrrolidin-1-yl)-3H-pyrrolo[2,1-f][1,2,4]triazin-4-one] | 350 | 25000 | 460 | 1100 |  |
| O=c1[nH]cnc2c(-c3ccc4c(c3)ncn4C3CCCCC3)cn(CCCO)c12 [Example 67, 7-(1-Cyclohexyl-1H-benzimidazol-5-yl)-5-(3-hydroxy-propyl)-3,5-dihydro-pyrrolo[3,2-d]pyrimidin-4-one] | 180 | 3800 | 150 | 930 |  |

Reference: patent EP2913333A1 (priority 2014, dated 2015)
